{"source": "patent US8383683B2", "about": "“Pharmaceutical use of substituted amides” (High Point Pharmaceuticals, LLC, priority 2007, dated 2013)"}
{"target": "T1, 11βHSD1 (Homo sapiens, UniProt P28845)", "T1 sequence (P28845 whole entry)": "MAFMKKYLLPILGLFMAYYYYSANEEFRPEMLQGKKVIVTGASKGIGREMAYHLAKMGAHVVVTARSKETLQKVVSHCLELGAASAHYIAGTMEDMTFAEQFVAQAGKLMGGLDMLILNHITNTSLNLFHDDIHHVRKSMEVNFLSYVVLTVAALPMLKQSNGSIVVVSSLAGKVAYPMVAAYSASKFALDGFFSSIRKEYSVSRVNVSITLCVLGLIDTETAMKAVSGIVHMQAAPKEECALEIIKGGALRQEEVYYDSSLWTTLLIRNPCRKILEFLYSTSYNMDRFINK", "test": "not given", "parameters": "host or cells: human volunteers and patients (in vivo)", "settings": "lean healthy volunteers and people with type 2 diabetes; cited from earlier work"}
{"smiles": "CC1(C)[C@@H](OC(=O)CCC(=O)O)CC[C@]2(C)[C@H]3C(=O)C=C4[C@@H]5C[C@@](C)(C(=O)O)CC[C@]5(C)CC[C@@]4(C)[C@]3(C)CC[C@@H]12", "note": "[carbenoxolone]", "insulin sensitivity": "improves insulin sensitivity"}
{"target": "T1, 11βHSD1", "test": "11βHSD1 enzyme assay (SPA, 3H-cortisone to 3H-cortisol)", "type": "biochemical", "parameters": "An extract of yeast transformed with h-11βHSD1 (Hutt et al., FEBS Lett., 441, 25 (1998)) was used as the source of enzyme; made in house", "settings": "extract of yeast transformed with h-11βHSD1; 120 nM 3H-cortisone, 4 mM β-NADPH, 60 min at 30° C.", "experimental": "Pharmacological Methods 11βHSD1 Enzyme Assay Materials\n^3H-cortisone and anti-rabbit Ig coated scintillation proximity assay (SPA) beads were purchased from Amersham Pharmacia Biotech, β-NADPH was from Sigma and rabbit anti-cortisol antibodies were from Fitzgerald. An extract of yeast transformed with h-11βHSD1 (Hutt et al., FEBS Lett., 441, 25 (1998)) was used as the source of enzyme. The test compounds were dissolved in DMSO (10 mM). All dilutions were performed in a buffer containing 50 mM TRIS-HCl (Sigma Chemical Co), 4 mM EDTA (Sigma Chemical Co), 0.1% BSA (Sigma Chemical Co), 0.01% Tween-20 (Sigma Chemical Co) and 0.005% bacitracin (Novo Nordisk NS), pH=7.4. Optiplate 96 wells plates were supplied by Packard. The amount of ^3H-cortisol bound to the SPA beads was measured on TopCount NXT, Packard.\nh-11βHSD1, 120 nM ^3H-cortisone, 4 mM β-NADPH, antibody (1:200), serial dilutions of test compound and SPA particles (2 mg/well) were added to the wells. The reaction was initiated by mixing the different components and was allowed to proceed under shaking for 60 min at 30° C. The reaction was stopped be the addition of 10 fold excess of a stopping buffer containing 500 μM carbenoxolone and 1 μM cortisone. Data was analysed using GraphPad Prism software.", "units": {"IC50": "nM"}}
{"smiles": "CN(C(=O)CCCOc1ccc(Cl)cc1Cl)[C@H]1CCCC[C@@H]1O", "note": "[Example 1-57, 4-(2,4-Dichloro-phenoxy)-N-((1S,2S)-2-hydroxy-cyclohexyl)-N-methyl-butyramide]", "IC50": 628}
{"smiles": "CN(C(=O)CCCOc1ccc(Cl)cc1Cl)C1CCCC(C(=O)O)C1", "note": "(stereo not drawn) [Example 1-58, 3-{[4-(2,4-Dichloro-phenoxy)-butyryl]-methyl-amino}-cyclo-hexanecarboxylic acid]", "IC50": 55}
{"smiles": "CN(C(=O)CCCOc1ccc(Cl)cc1Cl)C1CCCC(CO)C1", "note": "(stereo not drawn) [Example 1-59, 4-(2,4-Dichloro-phenoxy)-N-(3-hydroxy-methyl-cyclo-hexyl)-N-methyl-butyramide]", "IC50": 3}
{"smiles": "CN(C(=O)CCCOc1ccc(Cl)cc1Cl)C1CCC(CO)CC1", "note": "(stereo not drawn) [Example 1-60, 4-(2,4-Dichloro-phenoxy)-N-(4-hydroxy-methyl-cyclohexyl)-N-methyl-butyramide]", "IC50": 1}
{"smiles": "CN(C(=O)CCCOc1ccc(Cl)cc1Cl)C1CCCC(O)C1", "note": "(stereo not drawn) [Example 1-61, 4-(2,4-Dichloro-phenoxy)-N-(3-hydroxy-cyclohexyl)-N-methyl-butyramide]", "IC50": 56}
{"smiles": "CN(C(=O)CCCOc1ccc(Cl)cc1Cl)[C@H]1CCCC[C@@H]1CO", "note": "[Example 1-62, 4-(2,4-Dichloro-phenoxy)-N-((S)-2-hydroxymethyl-cyclo-hexyl)-N-methyl-butyramide]", "IC50": 123}
{"smiles": "CN(C(=O)CCCOc1ccc(Cl)cc1Cl)C1CC2CC1CC2O", "note": "(stereo not drawn) [Example 1-64, 4-(2,4-Dichloro-phenoxy)-N-(5-hydroxy-bicyclo[2.2.1]hept-2-yl)-N-methyl-butyramide]", "IC50": 2}
{"smiles": "CN(C(=O)CCCOc1ccc(Cl)cc1Cl)C1C2CC3CC1CC(CO)(C3)C2", "note": "(stereo not drawn) [Example 1-65, 4-(2,4-Dichloro-phenoxy)-N-(5-hydroxy-methyl-adamantan-2-yl)-N-methyl-butyramide]", "IC50": 4}
{"smiles": "COC(=O)C12CC3CC(CN(C(=O)CCCOc4ccc(Cl)cc4Cl)C(C3)C1)C2", "note": "(stereo not drawn) [Example 1-66, 4-[4-(2,4-Dichloro-phenoxy)-butyryl]-4-aza-tricyclo[4.3.1.1{3,8}]-undecane-1-carboxylic acid methyl ester]", "IC50": 3}
{"smiles": "O=C(CCCOc1ccc(Cl)cc1Cl)N1CC2CC3CC1CC(C(=O)O)(C3)C2", "note": "(stereo not drawn) [Example 1-67, 4-[4-(2,4-Dichloro-phenoxy)-butyryl]-4-aza-tricyclo[4.3.1.1{3,8}]-undecane-1-carboxylic acid]", "IC50": 25}
{"smiles": "COC(=O)C12CC3CC(C1)C(NC(=O)CCCOc1ccc(Cl)cc1Cl)C(C3)C2", "note": "(stereo not drawn) [Example 1-68, 4-[4-(2,4-Dichloro-phenoxy)-butyrylamino]-adamantane-1-carboxylic acid methyl ester]", "IC50": 17}
{"smiles": "CN(C(=O)CCCOc1ccc(Cl)cc1Cl)C1CCC(S(N)(=O)=O)CC1", "note": "(stereo not drawn) [Example 1-69, 4-(2,4-Dichloro-phenoxy)-N-methyl-N-(4-sulfamoyl-cyclohexyl)-butyramide]", "IC50": 2}
{"smiles": "CN(C(=O)CCCOc1ccc(Cl)cc1Cl)C1CCC(S(=O)(=O)N(C)C)CC1", "note": "(stereo not drawn) [Example 1-70, 4-(2,4-Dichloro-phenoxy)-N-(4-dimethyl-sulfamoyl-cyclohexyl)-N-methyl-butyramide]", "IC50": 479}
{"smiles": "CN(C(=O)CCCOc1ccc(Cl)cc1Cl)C1CCC(S(=O)(=O)N(C)C)CC1", "note": "(stereo not drawn) [Example 1-71, 4-(2,4-Dichloro-phenoxy)-N-(4-dimethyl-sulfamoyl-cyclohexyl)-N-methyl-butyramide]", "IC50": 21}
{"smiles": "CCOC(=O)C12CCC(NC(=O)CCCOc3ccc(Cl)cc3Cl)(CC1)CC2", "note": "[Example 1-72, 4-[4-(2,4-Dichloro-phenoxy)-butyrylamino]-bicyclo[2.2.2]octane-1-carboxylic acid ethyl ester]", "IC50": 198}
{"smiles": "O=C(CCCOc1ccc(Cl)cc1Cl)NC12CCC(CO)(CC1)CC2", "note": "[Example 1-73, 4-(2,4-Dichloro-phenoxy)-N-(4-hydroxy-methyl-bicyclo[2.2.2]oct-1-yl)-butyramide]", "IC50": 1}
{"smiles": "CN(C(=O)CCCOc1ccc(Cl)cc1Cl)C1CCC(C(=O)O)CC1", "note": "(stereo not drawn) [Example 1-74, 4-{[4-(2,4-Dichloro-phenoxy)-butyryl]-methyl-amino}-cyclo-hexanecarboxylic acid]", "IC50": 809}
{"smiles": "O=C(CCCOc1ccc(Cl)cc1Cl)NC1CCC(CO)CC1", "note": "(stereo not drawn) [Example 1-75, 4-(2,4-Dichloro-phenoxy)-N-(4-hydroxy-methyl-cyclohexyl)-butyramide]", "IC50": 27}
{"smiles": "CN(C(=O)CCCOc1ccc(Cl)cc1Cl)C1CCC(C(N)=O)CC1", "note": "(stereo not drawn) [Example 1-76, 4-{[4-(2,4-Dichloro-phenoxy)-butyryl]-methyl-amino}-cyclo-hexanecarboxylic acid amide]", "IC50": 18}
{"smiles": "CN(C(=O)CCCOc1ccc(Cl)cc1Cl)C1CCC(C(C)(C)O)CC1", "note": "(stereo not drawn) [Example 1-78, 4-(2,4-Dichloro-phenoxy)-N-[4-(1-hydroxy-1-methyl-ethyl)-cyclohexyl]-N-methyl-butyramide]", "IC50": 23}
{"smiles": "CC(C)(O)C1CCC(NC(=O)CCCOc2ccc(Cl)cc2Cl)CC1", "note": "(stereo not drawn) [Example 1-79, 4-(2,4-Dichloro-phenoxy)-N-[4-(1-hydroxy-1-methyl-ethyl)-cyclohexyl]-butyramide]", "IC50": 300}
{"smiles": "CCOC(=O)C1CC2CC1CC2N(C)C(=O)CCCOc1ccc(Cl)cc1Cl", "note": "(stereo not drawn) [Example 1-80, 5-{[4-(2,4-Dichloro-phenoxy)-butyryl]-methyl-amino}-bicyclo[2.2.1]heptane-2-carboxylic acid ethyl ester]", "IC50": 700}
{"smiles": "CC(C)(O)C12CC3CC(C1)C(NC(=O)CCCOc1ccc(Cl)cc1Cl)C(C3)C2", "note": "(stereo not drawn) [Example 1-83, 4-(2,4-Dichloro-phenoxy)-N-[5-(1-hydroxy-1-methyl-ethyl)-adamantan-2-yl]-butyramide]", "IC50": 9}
{"smiles": "CN(C(=O)CCCOc1ccc(Cl)cc1Cl)C1CC2CC1CC2CO", "note": "(stereo not drawn) [Example 1-84]", "IC50": 30}
{"smiles": "O=C(CCCOc1ccccn1)NC1C2CC3CC1CC(O)(C3)C2", "note": "(stereo not drawn) [Example 1-87, N-(5-Hydroxy-adamantan-2-yl)-4-(pyridin-2-yloxy)-butyramide]", "IC50": 227}
{"smiles": "CC(C)(CCOc1ccc(Cl)cc1Cl)C(=O)NC1C2CC3CC1CC(O)(C3)C2", "note": "(stereo not drawn) [Example 2-1, 4-(2,4-Dichloro-phenoxy)-N-(5-hydroxy-adamantan-2-yl)-2,2-dimethyl-butyramide]", "IC50": 2}
{"smiles": "CC(C)(CCOc1ccc(Cl)cc1Cl)C(=O)N1C2CCC1CC(O)C2", "note": "(stereo not drawn) [Example 2-3, 4-(2,4-Dichloro-phen-oxy)-1-(3-hydroxy-8-aza-bicyclo[3.2.1]oct-8-yl)-2,2-dimethyl-butan-1-one]", "IC50": 206}
{"smiles": "CC(C)(CCOc1ccc(Cl)cc1Cl)C(=O)NC1C2CC3CC1CC(CO)(C3)C2", "note": "(stereo not drawn) [Example 2-4, 4-(2,4-Dichloro-phen-oxy)-N-(5-hydroxy-methyl-adamantan-2-yl)-2,2-dimethyl-butyramide]", "IC50": 3}
{"smiles": "O=C(NC1C2CC3CC1CC(O)(C3)C2)C1(CCOc2ccc(Cl)cc2Cl)CC1", "note": "(stereo not drawn) [Example 2-5, 1-[2-(2,4-Dichloro-phen-oxy)-ethyl]-cyclo-pro-panecarboxylic acid (5-hydroxy-adamantan-2-yl)-amide]", "IC50": 4}
